Data reported in patent US4208409A, “N-[(phosphinyl or phosphinothioyl)amino]thio-methylcarbamates and pesticidal methods” (priority 1978, dated 1980).
Like-named read-outs stand apart in the source and are kept apart here.

How the values were obtained:
cabbage looper (CL) = test: cabbage looper mortality test (bush lima bean leaf dip); assay type: in vivo; conditions: Trichoplusia ni, foliar; for mortality at 11 ppm: rate 11 ppm
Source text: (§1) Representative pest species have been used, illustratively, order Lepidoptera, more specifically, the southern armyworm (SAW), (Prodenia eridania Cramer), the tobacco budworm (TBW), (Heliothis virescens), and the cabbage looper (CL) (Trichoplusia ni); order Acarina, more specifically, the two-spotted spider mite (TSSM) (Tetranychus urticae Koch); order Diptera, more specifically, the housefly (HF) (Musca domestica Linnaeus) or the yellow-fever mosquito (YFM) (Aedes aegypti); order Orthoptera, more specifically, the house cricket (HC) (Acheta domesticus Linnaeus) or the German cockroach (GC) (Blatella germanica Linnaeus); order Coleoptera, more specifically, the cotton boll weevil (BW) (Anthonomus grandis Boheman).
(§2) Preparation of tested chemicals--Analytical samples of each were dissolved in acetone. These acetone solutions were applied as such or portions of them were diluted with a Tween 20 "wet water" or a 10% sucrose "wet water". The "wet water" itself contained 0.132% v/v of Tween 20 (polyoxyethylene sorbitan monolaurate).
(§3) The southern armyworm and cabbage looper tests were effected with Henderson bush lima bean foliage characterized by two primary leaves per replicate. The leaves were dipped into a "wet water" emulsion of a test chemical, allowed to dry, and then placed on a moistened filter disk in a 9 cm plastic petri dish. Five larva of the respective test insects were put on the leaves, the cover of the petri dish was replaced, and it was set aside for future evaluation. Three replications for each treatment rate were prepared.
(§4) The southern armyworm, house cricket, boll weevil, house fly, and cabbage looper tests were held at 22° C., while the yellow fever mosquito larvae tests were held at 27° C.
(§5) The tests were evaluated for insect kill (including moribund and knocked down) after 24, 48, and sometimes 72 hours.

[1] = system: yellow-fever mosquito (YFM); test: whole plant or invertebrate; assay type: in vivo; conditions: Aedes aegypti
Source text: as §1, §2
The yellow fever mosquito larvae test was effected by adding the appropriate amount of a wet water and acetone solution of the test chemical to 100 ml distilled water in a 5-ounce waxed paper cup. Ten mosquito larvae were added. […]
as §5

southern armyworm (SAW) = test: southern armyworm mortality test (bush lima bean leaf dip); assay type: in vivo, Prodenia eridania Cramer; conditions: Spodoptera eridania, foliar
Source text: as §1, §2, §3, §4, §5

[2] = Mammalian Toxicity, oral LD50, rat; conditions: in vivo
tobacco budworm (TBW) = test: tobacco budworm mortality test; assay type: in vivo; conditions: Heliothis virescens
Source text: as §1, §2, §5

southern armyworm larvae = test: foliar residual effectiveness against southern armyworm larvae on lima bean seedlings; assay type: in vivo, Prodenia eridania Cramer
Source text: These compounds were also compared for their foliar residual effectiveness against southern armyworm larvae on lima bean seedlings. The compound Methyl N-[[[[[(diethoxyphosphinothioyl)isopropylamino]thio]methylamino]carbonyl]oxy]ethanimidothioate of this invention was producing 100 percent mortality seven weeks after the treatment was applied, whereas the activity of the parent compound at an equivalent rate had dissipated to 20% by the 14th day.

plant = test: phytotoxicity compared with the parent compound; assay type: in vivo; conditions: for average phytotoxicity index: after eight days, scale 0 = no damage, 10 = complete kill of plant
Source text: (§6) In other tests, the phytotoxicity, residual effectiveness, and animal toxicity of e.g. Methyl N-[[[[[(diethoxyphosphinothioyl)isopropylamino]thio]methylamino]carbonyl]oxy]ethanimidothioate were compared with the parent compound, methyl N-[[(methylamino)carbonyl]oxy]ethanimidothioate. […] The parent compound had corresponding index values of 4.25 and 5.0.

[3] = acute oral toxicity to male rats; assay type: in vivo, rat; conditions: rat, in vivo
crystallinity = assay type: physicochemical
cotton boll weevil (BW) = test: boll weevil mortality test (saturated cotton wad); assay type: in vivo, Anthonomus grandis Boheman
Source text: as §1, §2
(§7) The house fly and boll weevil tests were effected by saturating a golf-ball size wad of cotton with 10 ml of a "10% wet sugar water" preparation of the test chemical. […]
as §5

housefly (HF) = test: house fly mortality test (saturated cotton wad); assay type: in vivo, Musca domestica Linnaeus; conditions: Musca domestica
Source text: as §1, §2, §7, §5

male rats = test: acute oral toxicity to male rats; assay type: in vivo, rat
eggplant = test: phytotoxicity on the sensitive crop, eggplant, compared with the parent compound; assay type: in vivo
Source text: as §6

`CSC(C)=NOC(=O)N(C)SN(C(C)C)P1(=S)OC(C)CC(C)(C)O1` (centres unmarked) [Methyl N-[[[[[isopropyl(4,4,6-trimethyl-2-thioxo-1,3,2-dioxaphosphorinan-2-yl)amino]thio]methylamino]carbonyl]oxy]ethanimidothioate] showed a mortality at 11 ppm (cabbage looper (CL); CL) of 92.5%.

With `CCCN(SN(C)C(=O)Oc1cc(C)c(N(C)C)c(C)c1)P(=S)(OCC)OCC` [4-(dimethylamino)-3,5-xylyl [[(diethoxyphosphinothioyl)-n-propylamino]thio]methylcarbamate] the mortality at 0.6 ppm ([1]; rate 0.6 ppm) was 100% and the mortality at 100 ppm (southern armyworm (SAW)) was 100%.

In the case of `CCC1(CC)COP(=S)(N(SN(C)C(=O)ON=C(C)SC)C2CCCCC2)OC1` [Methyl-[[[[[cyclohexyl(5,5-diethyl-2-thioxo-1,3,2-dioxaphosphorinan-2-yl)amino]thio]methylamino]carbonyl]oxy]ethanimidothioate], the LD50 [2] is reported as > 8000 mg/kg, the mortality at 11 ppm (tobacco budworm (TBW)) is reported as 95% and the mortality at 11 ppm (cabbage looper (CL); CL) is reported as 77.5%. For the same compound, the mortality at 11 ppm (southern armyworm (SAW)) was 70%.

Compound `CNC(=O)ON=C(C)SC` [methyl N-[[(methylamino)carbonyl]oxy]ethanimidothioate, reference compound] has a foliar residual activity (southern armyworm larvae; by the 14th day, at an equivalent rate) of 20%, an average phytotoxicity index (plant; 300 ppm) of 4.25 and an average phytotoxicity index (plant; 600 ppm) of 5.0. The LD50 [3] was 17 to 24 mg/kg.

For `CCC1(CC)COP(=S)(N(SN(C)C(=O)ON=C(C)SC)C(C)C)OC1` [Methyl N-[[[[[isopropyl(5,5-diethyl-2-thioxo-1,3,2-dioxaphosphorinan-2-yl)amino]thio]methylamino]carbonyl]oxy]ethanimidothioate], the LD50 [2] was > 2000 mg/kg, the mortality at 11 ppm (tobacco budworm (TBW)) was 100% and the mortality at 11 ppm (cabbage looper (CL); CL) was 95%. For the same compound, the mortality at 11 ppm (southern armyworm (SAW)) was 60%.

`CCN(SN(C)C(=O)ON=C(C)SC)P1(=S)OCC(C)(C)CO1` [Methyl-[[[[[ethyl(5,5-dimethyl-2-thioxo-1,3,2-dioxaphosphorinan-2-yl)amino]thio]methylamino]carbonyl]oxy]ethanimidothioate] gave a mortality at 11 ppm (cabbage looper (CL); CL) of 56%.

For `CSC(C)=NOC(=O)N(C)SN(C(C)C)P1(=S)OCCO1` [Methyl N-[[[[[isopropyl(2-thioxo-1,3,2-phospholan-2-yl)amino]thio]methylamino]carbonyl]oxy]ethanimidothioate], the mortality at 11 ppm (tobacco budworm (TBW)) was 45%, the mortality at 11 ppm (cabbage looper (CL); CL) was 48% and the mortality at 11 ppm (southern armyworm (SAW)) was 40%.

For `CSC(C)=NOC(=O)N(C)SN(C(C)(C)C)P1(=S)OCC(C)(C)CO1` [Methyl N-[[[[[(5,5-dimethyl-2-thioxo-1,3,2-dioxaphosphorinano-2-yl)tert-butylamino]thio]methylamino]carbonyl]oxy]ethanimidothioate], the crystallinity (crystallinity) was “extremely crystalline”.

In the case of `CSC(C)=NOC(=O)N(C)SN(C1CCCCC1)P1(=S)OCC(C)(C)CO1` [Methyl N-[[[[[cyclohexyl(5,5-dimethyl-2-thioxo-1,3,2-dioxaphosphorinan-2-yl)amino]thio]methylamino]carbonyl]oxy]ethanimidothioate], the LD50 [2] is reported as > 8000 mg/kg, the mortality at 11 ppm (tobacco budworm (TBW)) is reported as 95% and the mortality at 11 ppm (cabbage looper (CL); CL) is reported as 87.5%. It also gave a mortality at 11 ppm (southern armyworm (SAW)) of 70%.

`CSC(C)=NOC(=O)N(C)SN(C(C)C)P1(=S)OCCCO1` [Methyl-[[[[[isopropyl(2-thioxo-1,3,2-dioxaphosphorinan-2-yl)amino]thio]methylamino]carbonyl]oxy]ethanimidothioate] showed a mortality at 11 ppm (southern armyworm (SAW)) of 56%.

Work on `COP(=S)(c1ccccc1)N(SN(C)C(=O)ON=C(C)SC)C(C)C` (centres unmarked) [Methyl N-[[[[[[methoxy(phenyl)phosphinothioyl]isopropylamino]thio]methylamino]carbonyl]oxy]ethanimidothioate] yielded a mortality at 25 ppm (cotton boll weevil (BW)) of 80%, a mortality at 25 ppm (housefly (HF)) of 50% and a mortality at 3.3 ppm (cabbage looper (CL)) of 50%. The mortality at 3.3 ppm (southern armyworm (SAW)) was 90%.

For `CCOP(=S)(OCC)N(SN(C)C(=O)ON=C(C)SC)C(C)C` [Methyl N-[[[[[(diethoxyphosphinothioyl)isopropylamino]thio]methylamino]carbonyl]oxy]ethanimidothioate], the mortality at 50 ppm (cotton boll weevil (BW); BW, rate 50 ppm) was 60%, the mortality at 25 ppm (housefly (HF); HF, rate 25 ppm, read-out: Mortality) was 80% and the mortality at 1 ppm ([1]; rate 1.0 ppm) was 100%. The mortality at 3.3 ppm (cabbage looper (CL); CL, rate 3.3 ppm, read-out: Mortality) was 100%, the “mortality, foliar residual effectiveness” value (southern armyworm larvae; seven weeks after the treatment was applied, 70560 min) was 100% and the average phytotoxicity index (plant; 300 ppm) was “about 1.0”. For the same compound, the average phytotoxicity index (plant; 600 ppm) was ~1.5, the “phytotoxicity compared with parent compound” value (plant; in general) was “in general less phytotoxic than the parent” and the “oral toxicity relative to the parent methylcarbamate” value (male rats) was “less than one fourth as toxic as the parent methylcarbamate”. The LD50 [3] was 105 mg/kg, the mortality at 3.3 ppm (southern armyworm (SAW)) was 100% and the “phytotoxicity compared with parent compound” value (eggplant) was “markedly less phytotoxic”.
